From ChEMBL document CHEMBL5352488, “Development of novel S-N3-DABO derivatives as potent non-nucleoside reverse transcriptase inhibitors with improved potency and selectivity” (Eur J Med Chem, 2023)

Assays:
[1] = Cytotoxicity against human MT4 cells assessed as reduction in cell viability by MTT assay; format: toxicity, cell-based
[2] = Selectivity index, ratio of CC50 for cytotoxicity against human MT4 cells assessed as reduction in cell viability by MTT assay to EC50 for anti-HIV activity against wild type HIV-1 IIIB infected in human MT4 cells assessed as inhibition of virus-induced cytopathic effect by MTT assay; format: toxicity, cell-based; conditions: read-out: Ratio CC50/EC50
[3] = system: Human immunodeficiency virus 1; assay: Anti-HIV activity against wild type HIV-1 IIIB infected in human MT4 cells assessed as inhibition of virus-induced cytopathic effect by MTT assay; format: functional, organism-based; conditions: Human immunodeficiency virus 1, IIIB
[4] = system: Human immunodeficiency virus 1; assay: Anti-HIV activity against drug resistant HIV-1 harboring E138K mutant infected in human MT4 cells assessed as inhibition of virus-induced cytopathic effect by MTT assay; format: functional, organism-based; conditions: Human immunodeficiency virus 1, MT4
[5] = system: Human immunodeficiency virus 1; assay: Anti-HIV activity against drug resistant HIV-1 harboring Y188L mutant infected in human MT4 cells assessed as inhibition of virus-induced cytopathic effect by MTT assay; format: functional, organism-based; conditions: Human immunodeficiency virus 1, MT4
[6] = system: Human immunodeficiency virus 1; assay: Anti-HIV activity against drug resistant HIV-1 harboring F227L/V106A mutant infected in human MT4 cells assessed as inhibition of virus-induced cytopathic effect by MTT assay; format: functional, organism-based; conditions: Human immunodeficiency virus 1, MT4
[7] = system: Human immunodeficiency virus 1; assay: Anti-HIV activity against drug resistant HIV-1 harboring Y181C mutant infected in human MT4 cells assessed as inhibition of virus-induced cytopathic effect by MTT assay; format: functional, organism-based; conditions: Human immunodeficiency virus 1, MT4
[8] = system: Human immunodeficiency virus 1; assay: Anti-HIV activity against drug resistant HIV-1 harboring K103N mutant infected in human MT4 cells assessed as inhibition of virus-induced cytopathic effect by MTT assay; format: functional, organism-based; conditions: Human immunodeficiency virus 1, MT4
[9] = system: Human immunodeficiency virus 1; assay: Anti-HIV activity against drug resistant HIV-1 harboring L100I mutant infected in human MT4 cells assessed as inhibition of virus-induced cytopathic effect by MTT assay; format: functional, organism-based; conditions: Human immunodeficiency virus 1, MT4

Cc1ccc(C(N=[N+]=[N-])c2nc(SC(C)C)[nH]c(=O)c2C)cc1 (centres undefined)
CC50 [1]: 7.73 µM | selectivity ratio [2]: 93 | EC50 [3]: 0.083 µM

Cc1cc(C)cc(C(N=[N+]=[N-])c2nc(SC(C)C)[nH]c(=O)c2C(C)C)c1 (centres undefined)
CC50 [1]: > 336 µM | selectivity ratio [2]: > 878 | EC50 [3]: 0.38 µM

Cc1c(C(N=[N+]=[N-])c2cccc3ccccc23)nc(SC(C)C)[nH]c1=O (centres undefined)
EC50 [4]: 1.37 µM | EC50 [5]: > 342 µM | EC50 [6]: > 342 µM | CC50 [1]: > 342 µM | EC50 [7]: 186 µM | EC50 [8]: > 342 µM | selectivity ratio [2]: > 1000 | EC50 [9]: 5.27 µM | EC50 [3]: 0.34 µM

CCc1c(C(N=[N+]=[N-])c2cccc3ccccc23)nc(SC(C)C)[nH]c1=O (centres undefined)
EC50 [4]: 7.34 µM | EC50 [5]: 55.8 µM | EC50 [6]: > 10.2 µM | CC50 [1]: 77.7 µM | EC50 [7]: 17.1 µM | EC50 [8]: 71.6 µM | selectivity ratio [2]: 81 | EC50 [9]: 9.18 µM | EC50 [3]: 0.96 µM

CCc1c(C(N=[N+]=[N-])c2cc(OC)cc(OC)c2)nc(SC(C)C)[nH]c1=O (centres undefined)
CC50 [1]: > 321 µM | selectivity ratio [2]: > 349 | EC50 [3]: 0.92 µM

Cc1c(C(N=[N+]=[N-])c2ccc(-c3ccccc3)cc2)nc(SC(C)C)[nH]c1=O (centres undefined)
CC50 [1]: > 319 µM | EC50 [3]: > 319 µM

Cc1c(C(N=[N+]=[N-])c2ccc(F)cc2)nc(SC(C)C)[nH]c1=O (centres undefined)
CC50 [1]: 320 µM | selectivity ratio [2]: 1090 | EC50 [3]: 0.29 µM

Cc1c(C(N=[N+]=[N-])c2ccc3ccccc3c2)nc(SC(C)C)[nH]c1=O (centres undefined)
EC50 [4]: 5.04 µM | EC50 [5]: 69.7 µM | EC50 [6]: 65 µM | CC50 [1]: 4.89 µM | EC50 [7]: 60.3 µM | EC50 [8]: > 154 µM | selectivity ratio [2]: 11 | EC50 [9]: 11.3 µM | EC50 [3]: 0.44 µM

CCc1c(C(N=[N+]=[N-])c2ccc(OC(F)(F)F)cc2)nc(SC(C)C)[nH]c1=O (centres undefined)
EC50 [4]: 0.26 µM | EC50 [5]: 62.2 µM | EC50 [6]: 9.71 µM | CC50 [1]: > 302 µM | EC50 [7]: 60.4 µM | EC50 [8]: 38.2 µM | selectivity ratio [2]: > 50 | EC50 [9]: 29.5 µM | EC50 [3]: 6.02 µM

CCc1c(C(N=[N+]=[N-])c2ccc(Br)cc2)nc(SC(C)C)[nH]c1=O (centres undefined)
EC50 [4]: 1.86 µM | EC50 [5]: 160 µM | EC50 [6]: 95.7 µM | CC50 [1]: > 306 µM | EC50 [7]: 65.2 µM | EC50 [8]: 51.2 µM | selectivity ratio [2]: > 1040 | EC50 [9]: 10.4 µM | EC50 [3]: 0.29 µM

COc1cc(OC)cc(C(N=[N+]=[N-])c2nc(SC(C)C)[nH]c(=O)c2C(C)C)c1 (centres undefined)
EC50 [4]: 4.56 µM | EC50 [5]: 63.1 µM | EC50 [6]: 58.9 µM | CC50 [1]: 97.6 µM | EC50 [7]: 54.7 µM | EC50 [8]: > 139 µM | selectivity ratio [2]: 55 | EC50 [9]: 10.2 µM | EC50 [3]: 1.78 µM

CCc1c(C(N=[N+]=[N-])c2ccc3ccccc3c2)nc(SC(C)C)[nH]c1=O (centres undefined)
CC50 [1]: 3.98 µM | selectivity ratio [2]: < 8 | EC50 [3]: 0.52 µM

Cc1c(C(C#N)c2ccccc2)nc(SC(C)C)[nH]c1=O (centres undefined)
EC50 [4]: 0.87 µM | EC50 [5]: > 204 µM | EC50 [6]: 21.4 µM | EC50 [3]: 0.37 µM

Cc1c(C(N=[N+]=[N-])c2ccccc2)nc(SC(C)C)[nH]c1=O (centres undefined)
EC50 [4]: 2.66 µM | EC50 [5]: > 396 µM | EC50 [6]: > 396 µM | CC50 [1]: > 396 µM | EC50 [7]: > 396 µM | EC50 [8]: > 387 µM | selectivity ratio [2]: > 7190 | EC50 [9]: 10.6 µM | EC50 [3]: 0.055 µM

O=C1Nc2ccc(Cl)cc2[C@@](C#CC2CC2)(C(F)(F)F)O1 [EFAVIRENZ]
EC50 [6]: 0.28 µM

Cc1c(C(N=[N+]=[N-])c2ccc(Cl)cc2)nc(SC(C)C)[nH]c1=O (centres undefined)
EC50 [4]: 3.61 µM | EC50 [5]: > 357 µM | EC50 [6]: > 357 µM | CC50 [1]: > 357 µM | EC50 [7]: > 357 µM | EC50 [8]: 61.1 µM | selectivity ratio [2]: > 1650 | EC50 [9]: 11 µM | EC50 [3]: 0.22 µM
